Experiments:
[1] = system: colon cancer cell line DLD-1; assay: Trans-well cancer cell migration inhibition, DLD-1; assay type: cell-based, human; conditions: for IC50: Colon cancer cell DLD-1, trans-well, 16 hours, read-out: Concentration inhibiting migration of cancer cells by 50% (IC50 value)
Description: (§1) In order to analyze cancer cell migration inhibitory activity of CG-608, CG-609 or CG-618 prepared in Examples 1, 2, or 9, cell migration inhibitory activity was measured using a trans-well by targeting a colon cancer cell line DLD-1 (ATCC-CCL-221), pancreatic cancer cell lines AsPc-1 (ATCC-CCL-1682). CFPAC-1 (ATCC-CCL-1918). Panc-1 (ATCC-CCL-1469), and Miapaca-2 (ATCC-CCL-1420), a skin cancer cell line A375-P (ATCC-CCL-3224), lung cancer cell lines HCC-827 (ATCC-CCL-2868), A549 (ATCC-CCL-185), and NCI-H460 (ATCC-CCL-177), a prostate cancer cell line DU145 (ATCC-HTB-81), a stomach cancer cell line NuGC-3 (JCRB0822), and an ovarian cancer cell line SKOV-3 (ATCC-HTB-77).
(§2) First, the number of DLD-1 cells was measured using a hemocytometer in an RPMI medium without FBS. Thereafter, the trans-well was placed on a 24-well plate and 8×10^4 […] of cells were added. In an empty space with the trans-well on the well plate, […] of an RPM medium having 10% FBS containing CG-608, CG-609, or CG-618 was added and cultured in a CO2 incubator at 37° C. for 16 hours. After culture, […] of crystal violet (5 mg/mL of 20% […] was added to each well of the 24-well plate and the trans-well was dyed at room temperature for 30 minutes. The dyed trans-well was washed with PBS and non-migrated cells were wiped off with cotton swabs. The prepared sample was photographed with an inverted microscope mounted with a digital camera (TE 300, Nikon. Japan) and then the number of migrated cells was counted. The degree of inhibiting cell migration was calculated by Equation 1 for a group treated with the sample compared to a control group (DMSO).
(§3) In Equation 1, ‘the number of migrated cells treated with sample’ refers to the number of migrated cells measured by treating CG-608 or CG-618 of Example 1, and ‘the number of migrated cells of a control sample’ refers to the number of migrated cells measured by treating only 1% dimethyl sulfoxide (DMSO) instead of the compound.

[2] = system: skin cancer cell line A375-P; assay: Trans-well cancer cell migration inhibition, A375-P; assay type: cell-based; conditions: Homo sapiens, A375P; for IC50: Skin cancer cell A375-P, read-out: Concentration inhibiting migration of cancer cells by 50% (IC50 value)
Description: as §1, §2, §3

[3] = system: prostate cancer cell line DU145; assay: Trans-well cancer cell migration inhibition, DU145; assay type: cell-based; conditions: for IC50: Homo sapiens, DU-145, Prostate cancer cell DU145, read-out: Concentration inhibiting migration of cancer cells by 50% (IC50 value)
Description: as §1, §2, §3

[4] = system: lung cancer cell line HCC-827; assay: Trans-well cancer cell migration inhibition, HCC-827; assay type: cell-based; conditions: Homo sapiens, HCC827; for IC50: Lung cancer cell HCC-827, read-out: Concentration inhibiting migration of cancer cells by 50% (IC50 value)
Description: as §1, §2, §3

[5] = system: stomach cancer cell line NuGC-3; assay: Trans-well cancer cell migration inhibition, NuGC-3; assay type: cell-based; conditions: for IC50: Homo sapiens, Gastric cancer cell NuGC-3, read-out: Concentration inhibiting migration of cancer cells by 50% (IC50 value)
Description: as §1, §2, §3

normal cells MCF10A [6] = assay: Cell migration of normal cells MCF10A; assay type: cell-based; conditions: FIG. 2
normal cells MCF10A [7] = assay: Cytotoxicity analysis (WST-1), normal cells MCF10A; assay type: cell-based; conditions: for Cytotoxicity in normal cells: 1 μM, 5 μM, 10 μM, 48 hours, WST-1, FIG. 2; for Growth of normal cells: FIG. 2
Description: (§4) In order to verify cytotoxicity of CG-608 to CG-610 and CG-613 to CG-618 prepared in Examples 1 to 9, human colon cancer cell line DLD-1 cells (ATCC-CCL-221), pancreatic cancer cell line AsPc-1 cells (ATCC-CRL-1682), and normal cells MCF10A (ATCC-CRL-10317) were cultured in an RPMI medium containing 10% bovine fetal serum (FBS) while maintaining 37° C. and 5% CO2, and then the cells were detached using a 0.05% trypsin-EDTA. 4×10^3 cells calculated by a hematocytometer were inoculated in each well of a 96-well plate containing a 10% FBS containing medium and cultured in a 37° C. incubator containing 5% C2.
(§5) After 24 hours, the medium of each well was exchanged to a new medium containing a control group (0.1% DMSO) and CG-609 prepared in Example 1 or CG-618 prepared in Example 9 as a representative benproperine derivative at concentrations of 1 μM, 5 μM, and 10 μM. Thereafter, the cells were cultured in an incubator at 37° C. and 5% CO2 for 48 hours. Thereafter, […] of WST-1 (Roche) was added to each well and cultured for 2 hours, and then the absorbance was measured at 450 nm using an ELISA reader (Bio-Rad).

[8] = system: colon cancer cell line DLD-1; assay: Cytotoxicity / proliferation analysis (WST-1), DLD-1; assay type: cell-based, human; conditions: DLD-1, FIG. 8
Description: as §4, §5

colon cancer cells DLD-1 = assay: Cancer cell invasion inhibition (Matrigel trans-well), DLD-1; assay type: cell-based; conditions: Homo sapiens, FIG. 8, read-out: Inhibition of cell invasion compared with DMSO-treated control
Description: In order to analyze cancer cell invasion inhibitory activity of CG-609 or CG-618 prepared in Example 1 or 9, cell invasion inhibitory activity using a trans-well was measured by targeting colon cancer cell line DLD-1 cells or pancreatic cancer cell line AsPc-1 cells.
Matrigel was diluted by 1/5 using an RPMI medium without FBS and then […] was put into each trans-well. The cells were coated in a […] for 2 hours. The number of DLD-1 cells was measured using a hemocytometer in an RPMI medium without FBS. Thereafter, the coated trans-well was placed on a 24-well plate and 8×10^4 […] of cells were added. In an empty space of the trans-well on the well plate, […] of an RPMI medium having 10% FBS containing (S)-(−)-benproperine was added and cultured in a CO2 incubator at 37° C. for 16 hours. After culture, […] of crystal violet (5 mg/mL of 20% MeOH) was added to each well of the 24-well plate and the trans-well was dyed at room temperature for 30 minutes. The dyed trans-well was washed with PBS and non-migrated cells were wiped off with cotton swabs. The prepared sample was photographed with an inverted microscope mounted with a digital camera (TE 300, Nikon, Japan), and then the number of migrated cells was counted. The degree of inhibiting cell migration was calculated for a group treated with the sample compared to a control group (DMSO).

[9] = Acute toxicity test for oral administration to rats; conditions: rat, in vivo, 1000 mg/kg; SD rats, single oral dose; read-out: Minimum dose (LD50) of oral administration
Description: Six-week-old specific pathogen free (SPF) SD-based rats were divided by two per group and then CG-608, CG-609, or CG-618 prepared in Example 1, 2, or 9 was dissolved in distilled water for injection and orally administered to rats once in a dose of 1000 mg/kg.

Structure (SMILES) | Cancer cell migration inhibitory activity relative to the benproperine derivative compound known in the related art ([1]; DLD-1) | IC50 ([1]; Homo sapiens) [µM] | inhibition at 0.05 µM ([1]; Homo sapiens, DLD-1, 50 nM, FIG. 4A) [%] | inhibition at 1 µM ([1]; Homo sapiens, DLD-1, 1 μM, FIG. 3) [%] | inhibition at 1 µM ([2]; A375-P, 1 μM, FIG. 3) [%] | IC50 [2] [µM] | Inhibition of cell migration ([3]; DU-145, concentration not given, FIG. 3) [%] | IC50 [3] [µM] | inhibition at 1 µM ([4]; HCC-827, 1 μM, FIG. 3) [%] | IC50 [4] [µM] | IC50 [5] [µM] | Inhibition of cell migration ([5]; NuGC-3, concentration not given, FIG. 3) [%] | Cell migration of normal cells (normal cells MCF10A [6]) | Cytotoxicity in normal cells (normal cells MCF10A [7]) | Growth of normal cells (normal cells MCF10A [7]) | Growth of cancer cells [8] | inhibition at 0.1 µM (colon cancer cells DLD-1; DLD-1, 100 nM) [%] | LD50 [9] [mg/kg] | inhibition at 0.5 µM (colon cancer cells DLD-1; DLD-1, 500 nM) [%]
C[C@H](COc1ccccc1Cc1ccccc1)N1CCCC[C@@H]1C [CG-609, (S)-1-((R)-1-(2-benzylphenoxy)propan-2-yl)-2-methylpiperidine] | more than 20 times | 0.06 | ≥ 50 | ≥ 50 | ≥ 50 | 0.7 | ≥ 50 | 2 | ≥ 50 | 0.21 | 5 | ≥ 50 | did not inhibit | did not exhibit cytotoxicity | did not inhibit | did not affect the growth | ≥ 50 | ≥ 1000 | –
CC1CCCCN1C(C)COc1ccccc1Cc1ccccc1 (racemic) [CG-618, 1-(1-(2-benzylphenoxy)propan-2-yl)-2-methylpiperidine] | – | 0.55 | – | – | – | 3 | – | 3 | – | 0.5 | 8 | – | did not inhibit | did not exhibit cytotoxicity | did not inhibit | did not affect the growth | – | ≥ 1000 | ≥ 50
